According to ChEMBL document CHEMBL5096222, “Discovery of a Trifluoromethoxy Cyclopentanone Benzothiazole Receptor-Interacting Protein Kinase 1 Inhibitor as the Treatment for Alzheimer's Disease” (J Med Chem, 2022):
pEC50, pKd: −log10 of the molar value.

What was measured:
[1] = target: Receptor-interacting serine/threonine-protein kinase 3 (Homo sapiens, UniProt Q9Y572); test: Binding affinity to recombinant human wild type partial length RIPK3 (M1 to Q307 residues) expressed in bacterial expression system by KINOMEscan TM assay
Sequence of Receptor-interacting serine/threonine-protein kinase 3 (Q9Y572 whole entry, the tested form may be a part): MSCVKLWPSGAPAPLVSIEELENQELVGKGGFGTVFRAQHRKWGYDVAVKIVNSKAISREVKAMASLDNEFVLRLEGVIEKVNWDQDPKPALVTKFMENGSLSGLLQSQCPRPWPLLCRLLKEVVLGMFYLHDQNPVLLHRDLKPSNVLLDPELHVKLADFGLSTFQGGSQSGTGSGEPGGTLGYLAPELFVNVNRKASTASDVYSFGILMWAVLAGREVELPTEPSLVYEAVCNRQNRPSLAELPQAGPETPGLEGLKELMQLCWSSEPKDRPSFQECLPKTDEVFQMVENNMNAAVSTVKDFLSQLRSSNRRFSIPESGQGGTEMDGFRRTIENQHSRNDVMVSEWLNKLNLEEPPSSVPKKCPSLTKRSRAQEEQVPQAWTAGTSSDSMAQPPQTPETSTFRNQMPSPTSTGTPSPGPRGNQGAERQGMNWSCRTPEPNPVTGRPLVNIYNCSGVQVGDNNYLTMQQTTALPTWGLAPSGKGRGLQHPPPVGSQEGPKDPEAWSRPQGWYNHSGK

HT-29 = test: Anti-necroptotic activity in TSZ induced human HT-29 cells assessed as increase in cell viability pretreated with compound followed by TSZ stimulation and measured after 16 hrs by celltiter-glo luminescent cell viability assay; type: functional, cell-based
[2] = target: T1, Receptor-interacting serine/threonine-protein kinase 1 (Homo sapiens, UniProt Q13546); test: Binding affinity to recombinant human wild type partial length RIPK1 (M1 to K305 residues) expressed in bacterial expression system by KINOMEscan TM assay
T1 sequence (Q13546 whole entry): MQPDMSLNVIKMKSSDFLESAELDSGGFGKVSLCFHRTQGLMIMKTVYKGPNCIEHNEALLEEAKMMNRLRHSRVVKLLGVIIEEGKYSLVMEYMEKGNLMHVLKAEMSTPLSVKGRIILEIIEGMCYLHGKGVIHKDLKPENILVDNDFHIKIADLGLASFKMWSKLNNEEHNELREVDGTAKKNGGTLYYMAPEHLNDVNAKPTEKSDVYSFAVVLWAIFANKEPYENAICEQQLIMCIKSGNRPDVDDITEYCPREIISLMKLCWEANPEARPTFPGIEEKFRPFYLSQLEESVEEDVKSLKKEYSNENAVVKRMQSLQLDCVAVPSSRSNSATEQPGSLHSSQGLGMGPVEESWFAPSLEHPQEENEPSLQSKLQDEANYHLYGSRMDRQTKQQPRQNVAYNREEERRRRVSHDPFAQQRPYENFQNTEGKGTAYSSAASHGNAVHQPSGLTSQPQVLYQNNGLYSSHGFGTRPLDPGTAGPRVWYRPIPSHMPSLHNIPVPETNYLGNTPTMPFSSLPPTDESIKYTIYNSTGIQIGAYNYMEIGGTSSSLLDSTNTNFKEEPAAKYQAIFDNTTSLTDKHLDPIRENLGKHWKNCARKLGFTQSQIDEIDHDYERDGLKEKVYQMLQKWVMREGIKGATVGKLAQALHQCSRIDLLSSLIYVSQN

[3] = Cytotoxicity against human HT-29 cells assessed as reduction in cell viability by celltiter-glo luminescent cell viability assay; type: toxicity, cell-based

pKd [1]	pKd [2]	SMILES	pEC50 (HT-29)	CC50 [3]
< 5.30	7.92	O=C(Cc1cccc(OC(F)(F)F)c1)Nc1cc(Oc2cc3nc(NC(=O)C4CCOC4)sc3cc2F)ccc1F (stereo unspecified)	7.89	> 50000 nM
< 5.30	8.35	O=C1CCC(C(=O)Nc2nc3cc(Oc4ccc(F)c(NC(=O)Cc5cccc(OC(F)(F)F)c5)c4)c(F)cc3s2)CC1	8.00	> 50000 nM
< 5.30	7.74	O=C(Cc1cccc(OC(F)(F)F)c1)Nc1cc(Oc2cc3nc(NC(=O)C4CC4F)sc3cc2F)ccc1F (stereo unspecified)	8.00	> 50000 nM
< 5.30	7.60	CC1(C)CC1C(=O)Nc1nc2cc(Oc3ccc(F)c(NC(=O)Cc4cccc(OC(F)(F)F)c4)c3)c(F)cc2s1 (stereo unspecified)	7.92	> 50000 nM
